Legend:
MT1 receptor = molecular target: T1, MT1 receptor (Homo sapiens, UniProt P48039); test: MT1 receptor binding assay ([3H]‐melatonin competition); conditions: mean ± SEM, three independent experiments
T1 construct: purchased Perkin‐Elmer ES‐620
Protocol: The stably transfected 5‐HT2C receptor HEK293 cell line was prepared using a nucleus‐cytoplasm‐membrane preparation kit (Applagin Technologies Inc.). Briefly, cells were harvested at 4°C, 110 00 × g and centrifugation for 5 min. Homogenize pellets in the assay buffer (50 mM Tris‐HCl buffer containing 120 mM NaCl and 5 mM KCl, pH 7.4) and then centrifuged twice at 4°C, 36,000 × g for 15 min. Finally, pellets were re‐suspended in assay buffer and stored it at −80°C until it is used for in vitro experiments.
Receptor membrane protein, MT1 or MT2 (10 μl), was added to all pipes. Non‐specific binding was determined by the presence of unlabeled 10 µM melatonin and pre‐reacted for 30 min. In test tubes, 30 μl of test drugs (MT1: concentration, 10^−4–10^−10 M; MT2: concentration, 10^−4–10^−11 M) was added. Additionally, 40 μl [^3H]‐melatonin was added to all tubes. The volume in all reaction tubes was made up to 300 μl with Tris‐HCl buffer (50 mM, pH 7.4). Reactions were performed at 25°C for 1 h. The mixture was then spotted onto a type 49 glass fiber filter paper, suction filtered under vacuum, rinsed three times with 2 ml ice‐cold Tris‐HCl buffer (50 mM, pH 7.4), and dried by suction. […] Finally, 1 ml of scintillation fluid was added and then the radioactive intensity measured by liquid scintillation counting.

[1] = molecular target: T2, 5‐HT2C receptor from rat hippocampal membranes (Rattus norvegicus, UniProt P08909); test: [35S]‐GTPγS and [3H]PIP assays, blockade of 5‐HT activation; type: biochemical; conditions: 10 nM 5‐HT
T2 construct: 5‐HT2C receptor from rat hippocampal membranes (C‐D); from tissue; host or cells: rat hippocampus
T2 sequence (P08909 33-460): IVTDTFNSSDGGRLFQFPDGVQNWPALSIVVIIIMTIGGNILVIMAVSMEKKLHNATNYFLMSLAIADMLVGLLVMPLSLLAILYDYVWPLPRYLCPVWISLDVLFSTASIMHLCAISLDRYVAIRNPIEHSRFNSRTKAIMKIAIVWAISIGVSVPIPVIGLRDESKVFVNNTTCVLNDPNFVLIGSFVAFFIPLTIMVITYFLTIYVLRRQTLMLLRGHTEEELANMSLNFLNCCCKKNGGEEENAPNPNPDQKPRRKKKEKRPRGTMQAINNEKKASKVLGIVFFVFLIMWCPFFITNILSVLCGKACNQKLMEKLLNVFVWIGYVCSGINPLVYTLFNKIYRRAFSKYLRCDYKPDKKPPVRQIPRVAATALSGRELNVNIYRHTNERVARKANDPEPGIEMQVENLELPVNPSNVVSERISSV
Protocol: This experiment was mentioned earlier. ^27 In short, HEK293 cell membrane stably expressing human 5‐HT2C receptors or rat hippocampal tissue membrane or MT1/MT2 receptors was re‐suspended in buffer (50 mmol/L Tris, 100 mmol/L NaCl, 5 mmol/L MgCl2·6H2O, 0.1 mmol/L EDTA‐Na2·6H2O, 0.2 mmol/L EGTA, pH 7.4) and incubated with the test compound (100 μM GDP, 0.2 nM [^35S]‐GTP, or [^3H]PIP) for 60 min at 28℃. At the end of the experiment, Whatman GF/C filters pre‐soaked with distilled water were used for rapid filtration followed by washing with 5 ml of ice‐cold Tris buffer. Determination of non‐specific binding in the presence of GTPγS and radioactivity was measured by liquid scintillation counting. Calculation of the concentration produces a half‐maximal effect (EC50) and the maximal increase above the baseline value.

rats [2] = test: Forced swimming test in rats; type: in vivo, Sprague Dawley (SD) rats; conditions: single dose p.o., 10, 20, or 40 mg/kg, vs. vehicle
Protocol: The forced swimming test (FST) was conducted as described earlier. ^30 Eighty naive rats were randomized into eight treatment groups (n = 9‐12/group). All rats received a single drug administration (p.o.). The procedure consisted of two sessions, to be specific, a pre‐test session and a test session. A cylindrical container (diameter, 20 cm; height, 40 cm; including 30 cm of water and kept at 25℃) was used. During the pre‐test phase, rats were required to perform forced swimming for 15 min. The test session was performed 24 h later, put the rats in the same cylindrical container for 5 min and immobility duration over 5 min recorded. […] Rats were considered immobile when they entered a floating posture, specifically, immobile, passive, and with their heads above water.

rats [3] = test: Locomotor activity in rats; type: in vivo; conditions: for Locomotor activity, Crossing number / Locomotor activity, Rearing number: Rats, mean ± S.E.M.
Protocol: In order to confirm whether GW117 has an antidepressant activity, we used spontaneous activities in mice and rats to determine whether GW117 affects the central system. 64 ICR mice were randomly allocation to five therapy groups ([…]): control group, 5 mg/kg GW117, 10 mg/kg GW117, 20 mg/kg GW117, and 40 mg/kg GW117. All rats and mice received one administration (p.o.). After sixty minutes of gavage administration, each mouse or rat was located in the corner of an open field chamber (36 × 29 × 23 cm for mice; 76 × 76 × 46 cm for rats) to adapt to 5 min. The numbers of crossings and rearings were recorded during the subsequent 5 min.

[4] = previous study; cited from earlier work

T1 sequence (P48039 whole entry): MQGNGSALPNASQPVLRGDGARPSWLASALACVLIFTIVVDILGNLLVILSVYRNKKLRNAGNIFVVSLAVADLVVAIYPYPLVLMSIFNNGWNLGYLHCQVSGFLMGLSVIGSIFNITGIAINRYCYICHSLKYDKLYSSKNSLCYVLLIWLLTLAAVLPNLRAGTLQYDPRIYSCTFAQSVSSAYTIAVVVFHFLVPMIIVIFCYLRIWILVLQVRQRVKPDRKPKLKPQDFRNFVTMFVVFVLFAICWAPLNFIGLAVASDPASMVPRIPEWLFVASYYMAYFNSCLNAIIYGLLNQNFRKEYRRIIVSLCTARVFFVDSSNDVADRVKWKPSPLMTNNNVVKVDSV

Question: Which results are given for `[2H]C([2H])([2H])Oc1cc2c(CCNC(C)=O)cccc2cc1Cl` [GW117]?
Answer: Ki (MT1 receptor): 0.12 ± 0.06 nM; blockade of activation of [35S]‐GTPγS binding and [3H]PIP released by 5‐HT [1]: dose‐dependently blocked; immobility time in FST (rats [2]): markedly reduced the immobility time; Locomotor activity, Crossing number (rats [3]; 5 mg/kg p.o.): 70.3 ± 5.1; Locomotor activity, Rearing number (rats [3]; 5 mg/kg p.o.): 14.2 ± 1.4; Locomotor activity, Crossing number (rats [3]; 10 mg/kg p.o.): 71.3 ± 6.8; Locomotor activity, Rearing number (rats [3]; 10 mg/kg p.o.): 14.9 ± 1.5; Locomotor activity, Crossing number (rats [3]; 20 mg/kg p.o.): 60.9 ± 4.4; Locomotor activity, Rearing number (rats [3]; 20 mg/kg p.o.): 13.8 ± 1.3; Locomotor activity, Crossing number (rats [3]; 40 mg/kg p.o.): 63.5 ± 4.6; Locomotor activity, Rearing number (rats [3]; 40 mg/kg p.o.): 12.8 ± 1.3; effect on number of crossings and rearings in the spontaneous activity test (rats [3]; rats, 5, 10, 20, or 40 mg/kg by gavage): had no effect; toxic effects compared with agomelatine [4]: lower toxic effects
